These results are taken from PubChem BioAssay (NCI).

“And” between values parts separate entries of the source, which are not always exact repeats. Equal entries are not always repeated.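 Interpolation was linear, between the two tested concentrations surrounding the appropriate level; five concentrations were tested over 48 hours in 96-well plates. GI50 is the concentration that inhibits growth by half. TGI is the concentration that stops growth completely.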 Bounds are passed on as bounds.

Holding throughout (test): DTP human tumour cell line panel, 48 h
In assay [1] the test system is A549 NSCLC.
Assay [2] has as its system CAKI-1 renal.
Assay [3] has as its system HCT-116 colon.
Assay [4] relates to HS 578T breast.
Assay [5] has as its system IGROV1 ovarian.
Assay [6] has as its system K-562 leukemia.
For assay [7], the system named is KM12 colon.
Assay [8] relates to MCF7 breast.
In assay [9] the test system is MDA-N.
The subject of assay [10] is NCI-H460 lung.
The subject of assay [11] is OVCAR-8 ovarian.
Assay [12] deals with SF-539 CNS.
In assay [13] the test system is MDA-MB-435.

As to `O=S(=O)(c1cc(Cl)ccc1Cl)N1CCN(c2cccc(Cl)c2)CC1`, the concentration for total growth inhibition (TGI) in assay [1], in [2], in assay [3], in assay [4], in [5] and in assay [6] was more than 100 µM in each case. Also, the total growth inhibition concentration (TGI) in assay [7], in [8], in assay [9], in [10], in assay [11] and in [12] was more than 100 µM throughout.

Regarding `CS(=O)(=O)O[C@H]1[C@H](O)c2ccccc2[C@@H]1N=[N+]=[N-]`, the TGI in assay [1], in assay [2], in assay [3], in assay [5], in assay [6] and in assay [7] was more than 100 µM in each case. The concentration for total growth inhibition (TGI) in assay [8], in assay [13], in assay [9], in assay [10], in [11] and in [12] was more than 100 µM each time.

Consider `COC(=O)[C@]12CSC[C@H]1C[C@H](c1cccc3ccccc13)N2`, for which the concentration for total growth inhibition (TGI) in assay [1], in [2], in [3], in assay [5], in assay [6] and in assay [7] was more than 100 µM throughout. Besides, the TGI in assay [8], in [13], in assay [9], in assay [10], in assay [11] and in assay [12] was more than 100 µM throughout.

In the case of `CN(C)CC1CCC/C(=C\c2ccccc2)C1=O` (stereo not drawn), the concentration for total growth inhibition (TGI) (as a rule, the concentration at which net growth stops) in assay [1] worked out at 38.2 µM; in [2] it was 3.2 µM; in [3], 2.91 µM; in [4] it was 9.87 µM; in assay [5], 13.9 µM; in assay [7] it was 2.59 µM. Also, the concentration for total growth inhibition (TGI) in assay [8] was determined as 2.18 µM; in assay [13], 3.54 µM; in assay [9] it was 8.93 µM; in assay [10], 16.9 µM; in assay [11] it was 14.7 µM; in assay [12], 14.3 µM.

In the case of `CCOc1cccc(-c2cc(=O)c3cc4c(cc3[nH]2)OCO4)c1`, the TGI was 28.9 µM in assay [1]; 9.67 µM in [2]; 7.85 µM in assay [3]; 13.5 µM in assay [4]; more than 100 µM in [5]; more than 100 µM in assay [8]. Also, the concentration for total growth inhibition (TGI) in [13] is 0.0528 µM; in assay [9], more than 100 µM; in [10], more than 61.8 µM; in assay [11], 2.7 µM; in [12], 0.549 µM.

Turning to `S=C1CC(c2ccccc2)Sc2cc(Cl)ccc2N1` (stereo not drawn), the TGI stood at 38.4 µM in assay [1]; 29 µM in assay [2]; 17.2 µM in assay [3]; 84 µM in assay [4]; 84.5 µM in assay [5]; 11.2 µM in assay [6]. For the same molecule, the concentration for total growth inhibition (TGI) is more than 100 µM in [7]; 34.8 µM in [8]; 30 µM in [13]; 39.6 µM in [9]; 22.8 µM in [10]; 31.3 µM in [11].

Regarding `O=C1CC2CC(CC3(CO3)C2)C1F` (stereo not drawn), the TGI in [1], in assay [2], in assay [3], in [4], in assay [5] and in assay [6] was more than 100 µM throughout. The concentration for total growth inhibition (TGI) in assay [7], in assay [8], in assay [13], in assay [9], in [10] and in assay [11] was more than 100 µM each time.

On to `CCNc1nnc(-c2ccccc2Nc2ccccc2-c2nnc(NCC)s2)s1`, for which the TGI in assay [1] was more than 62 µM; in assay [2] it was 17 µM; in [3], more than 56 µM; in assay [4] it was more than 65.7 µM; in assay [5], more than 100 µM; in [6], more than 100 µM. Moreover, the total growth inhibition concentration (TGI) was 37.2 µM in assay [7]; 29.7 µM in assay [8]; 71.4 µM in [13]; 35 µM in [9]; 31.3 µM in assay [10]; more than 83.9 µM in assay [11].

In the case of `C=C1c2nc3ccccc3n2C=C(c2ccc(Cl)cc2)N1c1ccc(OCCN2CCCCC2)cc1`, the GI50 – broadly, the concentration giving 50% growth inhibition – is more than 100 µM in [1]; 1.09 µM in assay [6]; more than 100 µM in assay [7]; more than 100 µM in assay [8]; 0.772 µM in [13]; 1.2 µM in [10]. The concentration for total growth inhibition (TGI) in assay [1] is more than 100 µM; in assay [2], more than 45 µM; in [3], more than 45 µM; in [5], more than 45 µM; in [6] it was more than 100 µM; in assay [7], more than 100 µM. Moreover, the TGI is more than 100 µM in assay [8]; 45 µM and > 100 µM in [13]; 45 µM in [9]; 45 µM and > 100 µM in assay [10]; more than 45 µM in assay [11]; more than 100 µM in assay [12].

For the molecule `C=CC1(c2ccc3ccccc3c2)OCC(CC)O1` (stereo not drawn), the concentration for total growth inhibition (TGI) in assay [1] was more than 100 µM; in assay [3], more than 100 µM; in [4], 77 µM; in [5] it was more than 100 µM; in assay [6], 85.1 µM; in [7], more than 100 µM. The TGI in assay [8], in [13], in assay [9], in [10] and in assay [11] was more than 100 µM each time.

Regarding `COC(=O)Cn1c(=O)oc2nc(-c3ccccc3)cc(C(F)(F)F)c21`, the TGI in assay [1], in [2], in [3], in [5], in assay [7] and in assay [8] was more than 100 µM each time. The TGI in [13], in [9], in [10], in assay [11] and in assay [12] was more than 100 µM throughout.

Regarding `NC(=O)CCC(NC(=O)c1c2ccccc2nc2ccccc12)C(=O)O` (stereo not drawn), the TGI in assay [1], in assay [2], in assay [3], in [5], in [6] and in assay [7] was more than 100 µM each time. For the same molecule, the TGI in [8], in [13], in [9], in assay [10], in assay [11] and in assay [12] was more than 100 µM throughout.

As for `O=C(NCCCN(CCCCN(CCCNC(=O)c1cc(S(=O)(=O)O)cc(O)c1O)C(=O)c1cc(S(=O)(=O)O)cc(O)c1O)C(=O)c1cc(S(=O)(=O)O)cc(O)c1O)c1cc(S(=O)(=O)O)cc(O)c1O`, the TGI in assay [1], in [2], in assay [3], in [4], in assay [5] and in assay [6] was more than 100 µM each time. The TGI in assay [7], in assay [13], in assay [9], in [10] and in [11] was more than 100 µM in each case.

As for `Cc1ccsc1C(=S)Nc1ccc(Cl)c(/C=N/OC(C)C)c1`, the TGI in [1], in assay [2], in assay [3], in assay [4], in assay [5] and in assay [7] was more than 100 µM throughout. In addition, the concentration for total growth inhibition (TGI) is 62.6 µM in [8]; more than 100 µM in [13]; more than 100 µM in [9]; more than 100 µM in [10]; more than 100 µM in [11]; more than 100 µM in assay [12].

As for `CCOC(=O)N/N=C(\CC)OCC`, the TGI in assay [1], in assay [2], in assay [3], in assay [4], in assay [5] and in assay [6] was more than 100 µM each time. Besides, the TGI in assay [7], in assay [8], in assay [9], in assay [10], in assay [11] and in assay [12] was more than 100 µM each time.

`CCOC(=O)C(NC(=O)CC)(Nc1ccc(F)cc1F)C(F)(F)F` (stereo not drawn): the TGI in [1], in [3], in [4], in [5], in assay [6] and in [13] was more than 100 µM in each case. In addition, the total growth inhibition concentration (TGI) in assay [9], in [11] and in assay [12] was more than 100 µM throughout.

For `Cc1cc2c(cc1Cl)SC(NNC1=NCCN1)=NS2(=O)=O`, the total growth inhibition concentration (TGI) in [1], in assay [2], in assay [3], in assay [4], in [5] and in assay [6] was more than 10 µM each time. Further, the TGI in assay [7], in assay [13], in assay [9], in assay [10], in assay [11] and in assay [12] was more than 10 µM in each case.

As for `C#CCOCn1cc(C)c(=O)[nH]c1=O`, the TGI in [1], in assay [2], in assay [3], in assay [4], in [5] and in assay [6] was more than 100 µM each time. The TGI in [7], in assay [8], in assay [9], in assay [10], in assay [11] and in [12] was more than 100 µM throughout.

Regarding `Cc1ccccc1Nc1nc(NNC(=O)Cc2ccccc2)nc(NNC(=O)c2ccncc2)n1`, the TGI in [2], in assay [4], in assay [5], in assay [6], in [7] and in assay [8] was more than 10 µM each time. The concentration for total growth inhibition (TGI) in assay [9], in assay [10], in assay [11] and in assay [12] was more than 10 µM in each case.

Turning to `O=c1[nH]c(=O)n(CCOc2ccc(Cl)cc2)cc1Nc1ccccc1`, the TGI in assay [1], in assay [2], in assay [3], in assay [4], in assay [5] and in assay [6] was more than 100 µM each time. In addition, the TGI in assay [7], in assay [8], in assay [13], in assay [9] and in [10] was more than 100 µM each time.

`O=c1[nH]c2c(c(=O)[nH]1)C(c1ccc([N+](=O)[O-])cc1)c1c([nH]c(=O)[nH]c1=O)O2`: the TGI in [1], in [2], in assay [3], in assay [4], in assay [5] and in assay [7] was more than 100 µM in each case. Moreover, the total growth inhibition concentration (TGI) in assay [13], in assay [9], in assay [10] and in assay [11] was more than 100 µM in each case.

In the case of `CC(C)(C)[Si](C)(C)OCC1OC(n2ccc(=O)[nH]c2=O)C(O[Si](C)(C)C(C)(C)C)[C@]12O[C@@H]2CO` (stereo partly drawn), the TGI in [1] is 26.6 µM; in assay [2], 38.7 µM; in assay [3] it was 39 µM; in assay [5], 33.1 µM; in assay [6], more than 100 µM; in [7] it was 35 µM. Also, the concentration for total growth inhibition (TGI) was 38.2 µM in [8]; 35.3 µM in assay [13]; 59 µM in assay [9]; 35.1 µM in assay [10]; more than 100 µM in assay [11]; 47.7 µM in assay [12].

Take `Cc1cc(C)nc(NS(=O)(=O)c2ccc(NC(=O)NC(F)(F)F)cc2)n1`: the total growth inhibition concentration (TGI) in assay [1] is more than 100 µM; in assay [2], 72.8 µM; in assay [3], more than 100 µM; in assay [4], more than 100 µM; in [5] it was more than 100 µM; in assay [6] it was more than 100 µM. Moreover, the concentration for total growth inhibition (TGI) in assay [13], in assay [9], in assay [11] and in assay [12] was more than 100 µM throughout.
